Key:
EptA = target: T1, EptA (Neisseria gonorrhoeae, UniProt B4RMY8); assay: TLC of fluorescent lipid; type: biochemical; settings: pH 7.5, 25°C, ~24 h, 0.2 mM substrate, 40 μM enzyme, 0.03% DDM
T1 construct: gene NGK_1498; full-length membrane protein, purified in DDM

ICR-Mo (AXE82_07515) = target: T2, ICR-Mo (AXE82_07515) (Faucicola osloensis, UniProt A0A378QCY4); assay: TLC of fluorescent lipid, LC/MS; type: biochemical; settings: pH 7.5, 25°C, ~24 h, 0.2 mM substrate, 40 μM enzyme, 0.03% DDM
T2 construct: gene eptA; full-length synthetic gene in pET21a, membrane protein, Ni-NTA purified in DDM, ~60 kDa
T2 sequence (A0A378QCY4 entry or part of it): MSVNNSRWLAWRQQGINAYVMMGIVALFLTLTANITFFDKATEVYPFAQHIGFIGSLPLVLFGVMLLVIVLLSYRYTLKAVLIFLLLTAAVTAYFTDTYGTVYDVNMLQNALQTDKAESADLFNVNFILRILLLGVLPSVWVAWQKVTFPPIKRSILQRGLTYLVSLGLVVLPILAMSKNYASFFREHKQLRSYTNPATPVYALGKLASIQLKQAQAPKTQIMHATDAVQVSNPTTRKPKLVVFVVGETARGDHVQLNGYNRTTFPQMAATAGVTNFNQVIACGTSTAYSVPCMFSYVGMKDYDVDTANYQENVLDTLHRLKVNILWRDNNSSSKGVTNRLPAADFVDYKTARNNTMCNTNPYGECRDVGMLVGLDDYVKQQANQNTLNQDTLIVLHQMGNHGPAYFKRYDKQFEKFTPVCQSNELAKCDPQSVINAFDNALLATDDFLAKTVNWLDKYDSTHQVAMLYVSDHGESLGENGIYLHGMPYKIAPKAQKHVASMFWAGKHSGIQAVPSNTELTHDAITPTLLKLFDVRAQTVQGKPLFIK

T1 sequence (B4RMY8 entry or part of it): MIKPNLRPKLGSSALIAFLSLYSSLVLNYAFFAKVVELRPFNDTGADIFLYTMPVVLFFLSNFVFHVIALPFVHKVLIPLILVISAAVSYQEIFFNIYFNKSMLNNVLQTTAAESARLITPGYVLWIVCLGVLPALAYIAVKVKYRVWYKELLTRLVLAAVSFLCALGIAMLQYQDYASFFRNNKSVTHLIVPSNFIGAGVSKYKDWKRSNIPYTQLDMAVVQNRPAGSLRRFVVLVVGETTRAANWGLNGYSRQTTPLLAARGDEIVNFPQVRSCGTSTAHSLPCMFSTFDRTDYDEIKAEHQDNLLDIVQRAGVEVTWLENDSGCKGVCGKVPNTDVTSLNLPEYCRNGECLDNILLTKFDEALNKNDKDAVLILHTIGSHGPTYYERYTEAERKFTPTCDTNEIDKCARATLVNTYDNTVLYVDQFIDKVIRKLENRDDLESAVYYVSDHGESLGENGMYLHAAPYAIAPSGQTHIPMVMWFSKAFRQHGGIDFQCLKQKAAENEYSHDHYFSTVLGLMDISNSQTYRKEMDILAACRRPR

SMILES: CCCCCCCCCCCCCCCC(=O)OC[C@H](COP(=O)(O)OCCN)OC(=O)CCCCCCCCCCCNc1ccc([N+](=O)[O-])c2nonc12 [NBD-glycerol-3-PEA, 1-acyl-2-{12-[(7-nitro-2-1,3-benzoxadiazol-4-yl)amino]dodecanoyl}-sn-glycero-3-phosphoethanolamine]
- TLC of fluorescent lipid (EptA): Minus denotes no addition of the enzyme of EptA/MCR-1/MCR-2/ICR-Mo
- TLC of fluorescent lipid, LC/MS (ICR-Mo (AXE82_07515)): ICR-Mo displays an enzymatic activity of removing the PEA moiety from the lipid substrate
